Measured values as given in US20240216336A1, “CLOTRIMAZOLE AS A TREATMENT FOR IMMUNODEFICIENCY DISORDERS” (Northwestern University, priority 2020, published 2024).

How the values were obtained:
[1] = test system: BMDMs; experiment: Inflammatory cytokine mRNA expression (quantitative RT-PCR) in BMDMs; format: cell-based, mouse; conditions: for increase in IL-1β mRNA levels in BMDMs of ΔE1HK1 mice / increase in IL-6 mRNA levels in BMDMs of ΔE1HK1 mice: 4 hr 6AN (1 mM) or OT (50 μM), ±LPS (200 ng/ml); for increase in IL-1β mRNA levels in IFN-γ primed BMDMs of ΔE1HK1 mice / increase in IL-6 mRNA levels in IFN-γ primed BMDMs of ΔE1HK1 mice: 16 hrs IFNγ priming, then 4 hrs LPS (200 ng/ml) ± 6AN (1 mM) or OT (50 μM)
Description: (§1) BMDMs were isolated from ΔE1HK1 and WT mice as previously reported (Rodriguez et al., 2019). Briefly, bone marrow was isolated from the tibia and femur of 8-10-week-old mice by puncturing one end of the femur and tibia with a 27g needle and placing it in a 0.5 ml tube with a hole punched in the bottom. The 0.5 ml tube containing the bone was then placed in a 1.75 ml tube and centrifuged at 5,000×g for 3.5 minutes. Bone marrow was then collected into the 1.75 ml tube and resuspend in 1 ml of RBC lysis buffer (abcam) for 1 minute and then transferred to a 50 ml tube with 4 ml RBC lysis buffer and incubated for 4 minutes. Next, 35 ml of PBS was added and centrifuged at 300×g for 5 min and supernatant was then decanted and cell pellet was re-suspended in complete RPMI with 20 ng/ml mCSF (Preprotech). Cells were counted using a hemocytometer and plated in 10 cm tissue culture plates at a density of 3-million cells/plate. Cells were cultured with 20 ng/mL mCSF to induce differentiation into BMDMs. Media was changed every 2 days and BMDMs were harvested by scraping on day 6 and plated in 12 well plates at a density of 1-million cells/well for mRNA extraction experiments. BMDMs were stimulated in the same manner as peritoneal macrophages (LPS dose for BMDMs was 200 ng/ml).
(§2) RNA was isolated from cells or tissues using RNA-STAT60 (Teltest) followed by chloroform extraction and precipitation. Reverse transcription was carried out using qScript cDNA Synthesis Kit (Quanta Bio). The resulting cDNA was amplified quantitatively using PerfeCTa SYBR Green Mix (Quanta Bio) on a 7500 Fast Real-time PCR System (Applied Biosystems). The relative gene expression was determined using differences in Ct values between gene of interest and house-keeping control genes. Complete list of primers can be found in Key Reagents Table (Table 1).

[2] = test system: RAW264.7 cells; experiment: Inflammatory cytokine mRNA expression (quantitative RT-PCR) in RAW264.7 cells; format: cell-based, mouse; conditions: ±LPS (200 ng/ml) and ±CGP3466 for 4 hrs
Description: (§3) RAW264.7 cells were a gift from Jason A. Wertheim MD, PhD. HepG2 and HEK293T cells were obtained from ATCC. RAW264.7, HEK293T, and HepG2 cells were cultured in Dulbecco's Modified Eagle's Medium (DMEM) (Corning) supplemented with 10% FBS (Atlanta Biologicals), 2 mM glutamine (HyClone), and 1 mM sodium pyruvate (Corning). […]
as §2

[3] = molecular target: T1, GAPDH (Mus musculus, UniProt P16858); experiment: GAPDH activity normalized to total protein in BMDMs; format: cell-based; set-up: endogenous in cells; conditions: ±CGP3466 for 4 hrs
T1 sequence (P16858 whole entry): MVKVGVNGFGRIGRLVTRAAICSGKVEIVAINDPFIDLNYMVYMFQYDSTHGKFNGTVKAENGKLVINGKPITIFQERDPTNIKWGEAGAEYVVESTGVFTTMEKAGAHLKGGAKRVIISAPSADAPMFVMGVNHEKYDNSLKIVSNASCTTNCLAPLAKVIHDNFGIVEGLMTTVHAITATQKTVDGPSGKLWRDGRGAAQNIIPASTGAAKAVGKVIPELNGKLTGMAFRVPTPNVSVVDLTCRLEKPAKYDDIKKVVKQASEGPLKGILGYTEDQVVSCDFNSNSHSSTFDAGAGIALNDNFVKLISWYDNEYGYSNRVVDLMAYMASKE
Description: as §1, with “Media was changed every 2 days and BMDMs were harvested by scraping on day 6 and plated in 12 well plates at a density of 1-million cells/well for mRNA extraction experiments. BMDMs were stimulated in the same manner as peritoneal macrophages (LPS dose for BMDMs was 200 ng/ml).” left out
(§4) The following kits were used according to the manufacturer's instructions: Promega NADP/NADPH quantification kit (G9081) and […] (G9071); Glyceraldehyde-3-Phosphate Dehydrogenase Activity Assay kit (abcam); ELISAs for IL-1β (DY401), IL-6 […].

[4] = molecular target: T1, GAPDH; experiment: GAPDH activity normalized to total protein in RAW264.7 cells; format: cell-based; set-up: endogenous in cells; host or cells: RAW264.7; conditions: LPS (200 ng/ml) ±CGP3466
Description: as §3, §4

[5] = test system: BMDMs from ΔE1HK1 mice; experiment: IL-1β ELISA from BMDM media; format: cell-based, mouse; conditions: 4 hrs LPS (200 ng/ml) ± 6AN (1 mM) or OT (50 μM), then 30 min ATP (2.5 mM)
Description: as §1, with “Cells were cultured with 20 ng/mL mCSF to induce differentiation into BMDMs. Media was changed every 2 days and BMDMs were harvested by scraping on day 6 and plated in 12 well plates at a density of 1-million cells/well for mRNA extraction experiments. BMDMs were stimulated in the same manner as peritoneal macrophages (LPS dose for BMDMs was 200 ng/ml).” left out
[…] Cell supernatant was collected and analyzed by ELISA according to manufacturer's instructions for IL-1β (DY401), IL-6 (DY406), and TNFα (DY410).
as §4

How did the “IL-1β mRNA expression in WT BMDMs” value ([1]; ±LPS and ±CGP3466 for 4 hrs, compared with ΔE1HK1 BMDMs) turn out when `C#CCN(C)CC1=Cc2ccccc2Oc2ccccc21.O=C(O)/C=C\C(=O)O` [CGP3466, CGP 3466 maleate (CAS 200189-97-5)] was run?
Its value is “increased IL-1β mRNA expression in WT BMDMs to the level of the hyper-inflamed ΔE1HK1 BMDMs”.

And the “increase in IL-1β mRNA with LPS in RAW264.7 cells” value [2]?
Its value is “amplified”.

What about the “difference in GAPDH activity of BMDMs between WT and ΔE1HK1 mice” value [3] of the same compound?
Its value is “abolished”.

And the “GAPDH activity in RAW264.7 cells” value [4]?
Its value is “decreased”.

With `NC(=O)c1ccc(N)nc1` [6AN, 6-aminonicotinamide] as the compound, how does the “IL-1β protein release (ELISA), higher release in ΔE1HK1 BMDMs” value [5] read?
Its value is “reversed”.

And the “increase in IL-1β mRNA levels in BMDMs of ΔE1HK1 mice” value [1]?
Its value is “abolished”.

And the “increase in IL-6 mRNA levels in BMDMs of ΔE1HK1 mice” value [1]?
The value was “abolished”.

And the “increase in IL-1β mRNA levels in IFN-γ primed BMDMs of ΔE1HK1 mice” value [1]?
Its value is “rescued”.

What about the “increase in IL-6 mRNA levels in IFN-γ primed BMDMs of ΔE1HK1 mice” value [1] of the same compound?
Its value is “rescued”.

Which “IL-1β protein release (ELISA), higher release in ΔE1HK1 BMDMs” value [5] does the source give for `Cc1ncc(C[n+]2csc(CCO)c2C)c(=O)[nH]1` [OT, oxythiamine] here?
Its value is “reversed”.

And the “increase in IL-1β mRNA levels in BMDMs of ΔE1HK1 mice” value [1]?
Its value is “abolished”.

What about the “increase in IL-6 mRNA levels in BMDMs of ΔE1HK1 mice” value [1] of the same compound?
Its value is “abolished”.

And the “increase in IL-1β mRNA levels in IFN-γ primed BMDMs of ΔE1HK1 mice” value [1]?
Its value is “rescued”.

And the “increase in IL-6 mRNA levels in IFN-γ primed BMDMs of ΔE1HK1 mice” value [1]?
The value was “rescued”.
